6 compounds from US10538555B2, “Macrocyclic inhibitors of the PD-1/PD-L1 and CD80(B7-1)/PD-L1 protein/protein interactions” (BRISTOL-MYERS SQUIBB COMPANY, priority 2014, dated 2020) can be followed below.

The target of the assay is T1, Human PD-L1/PD-1 (Homo sapiens, UniProt Q9NZQ7).
T1 construct: TVMV protease cleavage site (C); made in house; host or cells: HEK293T cells
The assay can be described thus: HTRF Human PD-L1/PD-1 binding assay (PD-1-Ig/PD-L1-His). The note with it: PD-L1-His 10 nM, PD-1-Ig 20 nM; class symbol; read-out: HTRF Human PD-L1/PD-1 Binding Assay IC50 Range. Summed up: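 Compound preincubated 15 min with PD-L1-His (10 nM final), then PD-1-Ig (20 nM final) added for 15 min in dPBS with 0.1% BSA and 0.05% Tween-20. Detection by Eu-cryptate anti-Ig (1 nM) and APC anti-His (20 nM) after 30 min; 665/620 nm HTRF ratio. Proteins expressed in HEK293T.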
On the technique in general: Time-resolved FRET reads energy transfer from a long-lived donor to a nearby acceptor.

Structures are written as SMILES. Several values for one entry are separate records, joined by “and”; a condition that tells them apart may be missing. Equal values may be shown once. *1 amine or outer side, *2 acyl side, *3 side chain or, on linkers, in order; H or OH if unused. Where a SMILES comes first, the peptide text is derived from it. Bridges are numbered along the chain shown (N, C = ends). [ ]: non-standard residue; d: D form. Phe(3,4,5-F3) = N[C@@H](Cc1cc(F)c(F)c(F)c1)C(=O)O; d(cisHyp) = O=C(O)[C@H]1C[C@@H](O)CN1; Phe(2-F) = N[C@@H](Cc1ccccc1F)C(=O)O; Bta = N[C@@H](Cc1csc2ccccc12)C(=O)O; Hyp = O=C(O)[C@@H]1C[C@@H](O)CN1; NMeF = CN[C@@H](Cc1ccccc1)C(=O)O; X1 = O=C([C@H]1COCCN1[*:1])[*:2]; dHyp = O=C(O)[C@H]1C[C@H](O)CN1; NMeNle = CCCC[C@H](NC)C(=O)O; Pip = O=C(O)[C@@H]1CCCCN1; NMeA = CN[C@@H](C)C(=O)O; Dab = NCC[C@H](N)C(=O)O

T1 sequence (Q9NZQ7 with tags, fused parts or gaps): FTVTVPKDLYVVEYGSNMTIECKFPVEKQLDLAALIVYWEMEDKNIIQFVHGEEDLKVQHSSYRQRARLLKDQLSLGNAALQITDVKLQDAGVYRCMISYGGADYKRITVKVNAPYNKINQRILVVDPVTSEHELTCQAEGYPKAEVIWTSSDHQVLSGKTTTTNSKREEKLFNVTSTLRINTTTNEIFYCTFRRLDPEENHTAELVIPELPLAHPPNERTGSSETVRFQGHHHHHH

In the case of `CCCC[C@H]1C(=O)N(C)[C@@H](CCCC)C(=O)N[C@@H](C)C(=O)N[C@H](C(=O)NCC(N)=O)CSCC(=O)N[C@@H](Cc2ccc(O)cc2)C(=O)N2CCCC[C@H]2C(=O)N[C@@H](CC(=O)O)C(=O)N2CCC[C@H]2C(=O)N[C@@H](Cc2cnc[nH]2)C(=O)N[C@@H](CCC(N)=O)C(=O)N2C[C@H](O)C[C@H]2C(=O)N[C@@H](Cc2c[nH]c3ccccc23)C(=O)N[C@@H](CO)C(=O)N[C@@H](Cc2csc3ccccc23)C(=O)N1C` [Example 1508] ({CH2CO}-Y[Pip]DPHQ[Hyp]WS[Bta][NMeNle][NMeNle]ACG-NH2; thioether N-14), the IC50 lay in the range of 1 to 9.9 nM.

Consider `CCCC[C@H]1C(=O)N2C[C@@H](O)C[C@@H]2C(=O)N[C@@H](CC(=O)O)C(=O)N[C@@H](C(C)C)C(=O)N(C)[C@@H](Cc2ccccc2)C(=O)N[C@@H](CCC(=O)O)C(=O)N2C[C@H](O)C[C@@H]2C(=O)N[C@@H](Cc2c[nH]c3ccccc23)C(=O)N[C@@H](Cc2ccc(O)cc2)C(=O)N[C@@H](CC(C)C)C(=O)N[C@H](C(=O)NCC(N)=O)CSCC(=O)N[C@@H](Cc2cc(F)c(F)c(F)c2)C(=O)N(C)[C@@H](Cc2ccccc2)C(=O)N1C` [Example 9369] ({CH2CO}-[Phe(3,4,5-F3)][NMeF][NMeNle][dHyp]DV[NMeF]E[d(cisHyp)]WYLCG-NH2; thioether N-13), for which the IC50 was in the range of 1 to 9.9 nM.

On to `CCCC[C@H]1C(=O)N2C[C@H](O)C[C@@H]2C(=O)N[C@@H](CC(=O)O)C(=O)N[C@@H](C(C)C)C(=O)N(C)[C@@H](Cc2ccccc2)C(=O)N[C@@H](Cc2ccc(O)cc2)C(=O)N2CCOC[C@@H]2C(=O)N[C@@H](Cc2c[nH]c3ccccc23)C(=O)N[C@@H](Cc2ccccc2F)C(=O)N[C@@H](CC(C)C)C(=O)N[C@H](C(=O)NCC(N)=O)CSCC(=O)N[C@@H](Cc2cc(F)c(F)c(F)c2)C(=O)N(C)[C@@H](Cc2ccccc2)C(=O)N1C` [Example 10195] ({CH2CO}-[Phe(3,4,5-F3)][NMeF][NMeNle][d(cisHyp)]DV[NMeF]Y[X1]W[Phe(2-F)]LCG-NH2; thioether N-13), for which the IC50 lay in the range of 1 to 9.9 nM.

Regarding `CCCC[C@H]1C(=O)N(C)[C@@H](CCCC)C(=O)N[C@@H](CCC(=O)O)C(=O)N[C@H](C(=O)NCC(N)=O)CSCC(=O)N[C@@H](Cc2ccc(OC)cc2)C(=O)N(C)[C@@H](C)C(=O)N[C@@H](CCN)C(=O)N2CCC[C@H]2C(=O)N[C@@H](Cc2cnc[nH]2)C(=O)N[C@@H](CCC(=O)O)C(=O)N2C[C@H](O)C[C@H]2C(=O)N[C@@H](Cc2c[nH]c3ccccc23)C(=O)N[C@@H](CC(=O)O)C(=O)N[C@@H](Cc2c[nH]c3ccccc23)C(=O)N1C` [Example 7132] ({CH2CO}-Y(Me)[NMeA][Dab]PHE[Hyp]WDW[NMeNle][NMeNle]ECG-NH2; thioether N-14), the IC50 is 100 to 990 nM and 10 to 99.9 nM.

In the case of `CCCC[C@H]1C(=O)N2C[C@H](O)C[C@@H]2C(=O)N[C@@H](CC(=O)O)C(=O)N[C@@H](C(C)C)C(=O)N(C)[C@@H](Cc2ccccc2)C(=O)N[C@@H](CCC(=O)O)C(=O)N2C[C@H](O)C[C@@H]2C(=O)N[C@@H](Cc2c[nH]c3ccccc23)C(=O)N[C@@H](Cc2ccc(O)cc2)C(=O)N[C@@H](CCC(=O)O)C(=O)N[C@H](C(=O)NCC(N)=O)CSCC(=O)N[C@@H](Cc2cc(F)c(F)c(F)c2)C(=O)N(C)[C@@H](Cc2ccccc2)C(=O)N1C` [Example 9335] ({CH2CO}-[Phe(3,4,5-F3)][NMeF][NMeNle][d(cisHyp)]DV[NMeF]E[d(cisHyp)]WYECG-NH2; thioether N-13), the IC50 was in the range of 10 to 99.9 nM.

`CCCC[C@H]1C(=O)N(C)[C@@H](CCCC)C(=O)N[C@@H](C)C(=O)N[C@H](C(=O)NCC(N)=O)CSCC(=O)NC(Cc2ccc(O)cc2)C(=O)N2CCCC[C@H]2C(=O)N[C@@H](CC(N)=O)C(=O)N2CCC[C@H]2C(=O)N[C@@H](Cc2c[nH]cn2)C(=O)N[C@@H](CC(C)C)C(=O)N2C[C@H](O)C[C@H]2C(=O)N[C@@H](Cc2c[nH]c3ccccc23)C(=O)N[C@@H](CO)C(=O)N[C@@H](Cc2c[nH]c3ccccc23)C(=O)N1C` (stereo partly drawn) [Example 1251]: the IC50 lay within 1 to 9.9 nM.
